Results: patent publication US8501775B2, “Anthelmintics for preventing parasitic infections in humans and animals” (SALTIGO GmbH, priority 2000, dated 2013)

Test system: Schistosoma mansoni cercariae
Test: Activity against Schistosoma mansoni cercariae (survival/mobility observed with a stereomagnifier)
Parameters: key: no effect during the entire test period of 120 minutes; 1: weak effect (the cercariae have a strongly reduced mobility); 2: good effect (the cercariae are only slightly mobile and bent); 3: full effect (the cercariae are completely immobile)
Details: 500 μl/l final concentration of the active compounds; test period of 120 minutes
Experimental: Activity Against Schistosoma mansoni Cercariae
Snails (Biomphalaria glabrata) were infected by incubating each of them with 8 miracidia in 10 ml of water overnight. About 6 to 9 weeks after the infection, cercariae were obtained by irradiating the snails, which had been kept in darkness, with light, followed by collection of the swarming cercariae within 2 hours.
Such an amount of cercariae-containing water (1 or 2 ml, see below) was added to the test batches that each batch contained about 100 to 150 cercariae.
9 ml of aquarium water was then added, and the batch was shaken vigorously. After (delayed) addition of 1 ml of cercariae suspension, survival of the cercariae was in each case observed immediately using a stereomagnifier.

Question: With CCCCOC(=O)N(C)CCCO as the compound, how does the Assessment read?
Answer: The Assessment was 1.

Question: Which Assessment does the source give for C=CCCOC(=O)N(C)CCCO here?
Answer: The Assessment was 2.

Question: Which Assessment does the source give for C=CCOC(=O)N1CCCCC1CCO (stereo not shown) here?
Answer: The Assessment was 3.

Question: For CCCCOC(=O)N1CCCCC1CCO (stereo not shown), which Assessment is on record?
Answer: Its Assessment is 3.

Question: For CCC(C)OC(=O)N1CCCCC1CCO (stereo not shown), which Assessment is on record?
Answer: Its Assessment is 2.

Question: Which Assessment does the source give for CCC(C)COC(=O)N(C)CCCO (stereo not shown) here?
Answer: Its Assessment is 1.

Question: Which Assessment does the source give for CN(CCCO)C(=O)OC1CCCCC1 here?
Answer: Its Assessment is 1.

Question: For CC(C)(C)OC(=O)N1CCCCC1CCO (stereo not shown), which Assessment is on record?
Answer: The Assessment was 3.

Test system: cercariae of Schistosoma mansoni
Test: not given
Details: literature statement; cited from earlier work

Question: For CCN(CC)C(=O)c1cccc(C)c1 [DEET, N,N-Diethyl-m-toluamide], which “effect on cercariae of Schistosoma mansoni” value is on record?
Answer: The value was “acts against cercariae”.

Question: For Oc1c(Cl)cc(Cl)c(Cl)c1Cc1c(O)c(Cl)cc(Cl)c1Cl [hexachlorophene], which “effect on cercariae of Schistosoma mansoni” value is on record?
Answer: Its value is “lethal effect”.

Test system: cercariae of Schistosoma mansoni
Test: not given
Details: topical, monkeys; literature statement; cited from earlier work

Question: For O=C(Nc1ccc([N+](=O)[O-])cc1Cl)c1cc(Cl)ccc1O [Niclosamide], which “action against the penetration of cercariae” value is on record?
Answer: The value was “acts against the penetration of cercariae”.

Test system: not given
Test: not given
Details: literature / regulatory statement; cited from earlier work

Question: For O=C(Nc1ccc([N+](=O)[O-])cc1Cl)c1cc(Cl)ccc1O [Niclosamide], which toxicity / hazard is on record?
Answer: The toxicity / hazard was “may possibly cause inheritable genetic damage”.

Question: For Oc1c(Cl)cc(Cl)c(Cl)c1Cc1c(O)c(Cl)cc(Cl)c1Cl [hexachlorophene], which toxicity / hazard is on record?
Answer: The toxicity / hazard was “toxic on contact with the skin and when swallowed”.
